Experimental data from PubChem BioAssay AID248 (DTP/NCI, 2004).
“And” between values parts separate entries of the source, which are not always exact repeats. Equal values may be shown once. Toxic doses and inconclusive results are not listed. Cut-off read from the data, not from the text of the source: active = T/C of 150% or more; inactive = T/C below 125%.

Test system: L1210 leukemia ip in BDF1 mice, survival T/C
Assay: NCI In Vivo Anticancer Drug Screen. Data for tumor model L1210 Leukemia (intraperitoneal) in B6D2F1 (BDF1) mice
Conditions: endpoint: mean survival time, higher = longer survival
In short: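 Ratio derived from survival: compound-dosed mice over vehicle-dosed mice, all bearing a transplantable tumor.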

[1] = dose: 100.0 mg/kg/injection, schedule: Q04DX003 (ip), vehicle: saline
[2] = dose: 200.0 mg/kg/injection, schedule: Q04DX003 (ip), vehicle: saline
[3] = dose: 400.0 mg/kg/injection, schedule: Q04DX003 (ip), vehicle: saline
[4] = dose: 50.0 mg/kg/injection, schedule: Q04DX003 (ip), vehicle: Klucel (hydroxypropylcellulose) (HPC)
[5] = dose: 100.0 mg/kg/injection, schedule: Q04DX003 (ip), vehicle: Klucel (hydroxypropylcellulose) (HPC)
[6] = dose: 200.0 mg/kg/injection, schedule: Q04DX003 (ip), vehicle: Klucel (hydroxypropylcellulose) (HPC)
[7] = dose: 100.0 mg/kg/injection, schedule: Q04DX003 (ip), vehicle: acetone
[8] = dose: 200.0 mg/kg/injection, schedule: Q04DX003 (ip), vehicle: acetone
[9] = dose: 400.0 mg/kg/injection, schedule: Q04DX003 (ip), vehicle: acetone
[10] = dose: 100.0 mg/kg/injection, schedule: Q04DX003 (ip), vehicle: saline with Tween-80
[11] = dose: 200.0 mg/kg/injection, schedule: Q04DX003 (ip), vehicle: saline with Tween-80
[12] = dose: 400.0 mg/kg/injection, schedule: Q04DX003 (ip), vehicle: saline with Tween-80
[13] = dose: 100.0 mg/kg/injection, schedule: Q01DX009 (ip), vehicle: Klucel (hydroxypropylcellulose) (HPC)
[14] = dose: 200.0 mg/kg/injection, schedule: Q01DX009 (ip), vehicle: Klucel (hydroxypropylcellulose) (HPC)
[15] = dose: 12.5 mg/kg/injection, schedule: Q01DX009 (ip), vehicle: saline with Tween-80
[16] = dose: 25.0 mg/kg/injection, schedule: Q01DX009 (ip), vehicle: saline with Tween-80
[17] = dose: 50.0 mg/kg/injection, schedule: Q01DX009 (ip), vehicle: saline with Tween-80
[18] = dose: 100.0 mg/kg/injection, schedule: Q01DX009 (ip), vehicle: saline with Tween-80
[19] = dose: 400.0 mg/kg/injection, schedule: Q01DX009 (ip), vehicle: Klucel (hydroxypropylcellulose) (HPC)
[20] = dose: 200.0 mg/kg/injection, schedule: Q01DX009 (ip), vehicle: saline with Tween-80

Measured: T/C

COc1ccc2nc(-c3ccc(C)cc3)cc(C(=O)O)c2c1
inactive: dose: 100.0 mg/kg/injection, schedule: Q01DX001 (ip), vehicle: saline 92 % of control | [1] 96 % of control | dose: 200.0 mg/kg/injection, schedule: Q01DX001 (ip), vehicle: saline 106 % of control | [2] 94 % of control | dose: 400.0 mg/kg/injection, schedule: Q01DX001 (ip), vehicle: saline 88 % of control | [3] 97 % of control

CCN(CC)CCNc1c(C)cc(CO)c(Cl)c1C
inactive: dose: 31.25 mg/kg/injection, schedule: Q01DX009 (ip), vehicle: saline 97 % of control | dose: 62.5 mg/kg/injection, schedule: Q01DX009 (ip), vehicle: saline 99 % of control | dose: 125.0 mg/kg/injection, schedule: Q01DX009 (ip), vehicle: saline 97 % of control | dose: 250.0 mg/kg/injection, schedule: Q01DX009 (ip), vehicle: saline 103 % of control

Cc1cc(C)c(F)c(Br)c1N
inactive: [4] 95 % of control | dose: 100.0 mg/kg/injection, schedule: Q01DX001 (ip), vehicle: Klucel (hydroxypropylcellulose) (HPC) 97 % of control | [5] 95 % of control | dose: 200.0 mg/kg/injection, schedule: Q01DX001 (ip), vehicle: Klucel (hydroxypropylcellulose) (HPC) 101 % of control | [6] 106 % of control | dose: 400.0 mg/kg/injection, schedule: Q01DX001 (ip), vehicle: Klucel (hydroxypropylcellulose) (HPC) 100 % of control

O=C(O)CCSc1ccc2c(c1)CCCC2
inactive: [7] 99 % of control | [8] 100 % of control | [9] 96 % of control

O=C1OC(c2ccc(Cl)cc2)Sc2ccccc21 (stereo not given)
inactive: [10] 103 % of control | [11] 94 % of control | [12] 100 % of control

Cc1cn[nH]c1-c1ccccc1O
inactive: dose: 100.0 mg/kg/injection, schedule: Q04DX002 (ip), vehicle: saline with Tween-80 96 % of control | dose: 200.0 mg/kg/injection, schedule: Q04DX002 (ip), vehicle: saline with Tween-80 100 % of control | dose: 400.0 mg/kg/injection, schedule: Q04DX002 (ip), vehicle: saline with Tween-80 100 % of control

OC(CN1CCOCC1)c1ccccc1 (stereo not given)
inactive: [13] 94 % of control | [5] 98 % of control | [14] 95 % of control | [6] 102 % of control

O=C1c2ccccc2C(=O)C1c1nc2ccccc2cc1O
inactive: [15] 94 % of control | dose: 12.5 mg/kg/injection, schedule: Q04DX002 (ip), vehicle: saline with Tween-80 96 % of control | [16] 96 % of control and 102 % of control | dose: 25.0 mg/kg/injection, schedule: Q04DX002 (ip), vehicle: saline with Tween-80 104 % of control | [17] 102 % of control | dose: 50.0 mg/kg/injection, schedule: Q04DX002 (ip), vehicle: saline with Tween-80 89 % of control | dose: 115.0 mg/kg/injection, schedule: Q01DX009 (ip), vehicle: saline with Tween-80 93 % of control | dose: 170.0 mg/kg/injection, schedule: Q01DX009 (ip), vehicle: saline with Tween-80 100 % of control

Cc1ccc(S(=O)(=O)c2ccc(Cl)cc2)cc1
inactive: [7] 110 % of control | [8] 110 % of control | [9] 109 % of control

CC[n+]1ccc(Nc2ccc(NC(=O)c3ccc([N+](=O)[O-])cc3)cc2)cc1
inactive: [15] 100 % of control | [16] 91 % of control | [17] 88 % of control | dose: 100.0 mg/kg/injection, schedule: Q01DX001 (ip), vehicle: saline with Tween-80 100 % of control | [18] 92 % of control | dose: 200.0 mg/kg/injection, schedule: Q01DX001 (ip), vehicle: saline with Tween-80 110 % of control | dose: 400.0 mg/kg/injection, schedule: Q01DX001 (ip), vehicle: saline with Tween-80 98 % of control

NC(=O)NC1CCCCCCC1
inactive: [10] 98 % of control | [11] 89 % of control | [12] 95 % of control

Nc1ccccc1CC(C(=O)O)c1ccc2c(c1)OCO2 (stereo not given)
inactive: dose: 75.0 mg/kg/injection, schedule: Q01DX001 (ip), vehicle: saline 105 % of control | dose: 75.0 mg/kg/injection, schedule: Q01DX009 (ip), vehicle: acetone 108 % of control | dose: 150.0 mg/kg/injection, schedule: Q01DX001 (ip), vehicle: saline 94 % of control | dose: 150.0 mg/kg/injection, schedule: Q01DX009 (ip), vehicle: acetone 103 % of control | dose: 300.0 mg/kg/injection, schedule: Q01DX001 (ip), vehicle: saline 89 % of control | dose: 300.0 mg/kg/injection, schedule: Q01DX009 (ip), vehicle: acetone 103 % of control

CCOC(=O)c1[nH]c2c(c1CC(CC)[N+](=O)[O-])CCCC2 (stereo not given)
inactive: [13] 96 % of control | [5] 93 % of control | [14] 98 % of control | [6] 93 % of control | [19] 101 % of control | dose: 400.0 mg/kg/injection, schedule: Q04DX003 (ip), vehicle: Klucel (hydroxypropylcellulose) (HPC) 95 % of control

CCOP(=O)(OCC)OC(=C(F)F)P(=O)(OCC)OCC
inactive: [1] 98 % of control | [2] 101 % of control | [3] 96 % of control

CNC(=O)Oc1ccccc1-c1ccccc1
inactive: dose: 100.0 mg/kg/injection, schedule: Q01DX001 (ip), vehicle: carboxymethylcellulose (CMC) 100 % of control | dose: 200.0 mg/kg/injection, schedule: Q01DX001 (ip), vehicle: carboxymethylcellulose (CMC) 100 % of control | dose: 400.0 mg/kg/injection, schedule: Q01DX001 (ip), vehicle: carboxymethylcellulose (CMC) 96 % of control

CCO/C=C1\SC(=S)N(c2ccco2)C1=O
inactive: dose: 100.0 mg/kg/injection, schedule: Q01DX009 (ip), vehicle: saline sonified 98 % of control | dose: 200.0 mg/kg/injection, schedule: Q01DX009 (ip), vehicle: saline sonified 103 % of control | dose: 400.0 mg/kg/injection, schedule: Q01DX009 (ip), vehicle: saline sonified 92 % of control

COc1ccc2c3c1OC1C4(CCC5C(C2)N(CC2CC2)CCC351)OCCO4 (stereo not given)
inactive: dose: 12.5 mg/kg/injection, schedule: Q04DX003 (ip), vehicle: Klucel (hydroxypropylcellulose) (HPC) 101 % of control | dose: 25.0 mg/kg/injection, schedule: Q01DX009 (ip), vehicle: Klucel (hydroxypropylcellulose) (HPC) 95 % of control | dose: 25.0 mg/kg/injection, schedule: Q04DX003 (ip), vehicle: Klucel (hydroxypropylcellulose) (HPC) 103 % of control | dose: 50.0 mg/kg/injection, schedule: Q01DX009 (ip), vehicle: Klucel (hydroxypropylcellulose) (HPC) 94 % of control | [4] 101 % of control | [13] 91 % of control | [5] 101 % of control

CCOC(=O)/C=C/c1ccco1
inactive: [17] 93 % of control | [18] 96 % of control | [10] 103 % of control | [20] 93 % of control | [11] 95 % of control

Nc1ccc(-c2ccc(N)cc2Br)c(Br)c1
inactive: [18] 99 % of control | [10] 95 % of control | [20] 105 % of control | [11] 97 % of control | dose: 400.0 mg/kg/injection, schedule: Q01DX009 (ip), vehicle: saline with Tween-80 88 % of control | [12] 92 % of control

CN=NC(C)(C)OC(C)=O
inactive: dose: 12.5 mg/kg/injection, schedule: Q01DX001 (ip), vehicle: saline 97 % of control | dose: 12.5 mg/kg/injection, schedule: Q01DX009 (ip), vehicle: saline 101 % of control | dose: 12.5 mg/kg/injection, schedule: Q04DX003 (ip), vehicle: saline 107 % of control | dose: 25.0 mg/kg/injection, schedule: Q01DX001 (ip), vehicle: saline 96 % of control | dose: 25.0 mg/kg/injection, schedule: Q01DX009 (ip), vehicle: saline 108 % of control | dose: 25.0 mg/kg/injection, schedule: Q04DX003 (ip), vehicle: saline 107 % of control | dose: 50.0 mg/kg/injection, schedule: Q01DX001 (ip), vehicle: saline 107 % of control | dose: 50.0 mg/kg/injection, schedule: Q04DX003 (ip), vehicle: saline 98 % of control

CCCCCCCCCCCCCCCCCC(=O)N/N=C/c1ccc(N(C)C)cc1
inactive: [13] 93 % of control | [14] 94 % of control | [19] 98 % of control
